This is an account of results in US10654828B2 (NOVARTIS AG, priority 2017, dated 2020).

The subject of assay [1] is FoxO3a. Briefly: FoxO3a inhibition: GFP-FoxO3a nuclear to cytoplasmic translocation reporter assay. To be noted: Homo sapiens, U2OS, 0.5 h, U2OS GFP-FoxO3a H212R cells, serum starved overnight, compound 30 minutes; ratio of nuclear to cytosolic GFP intensity; DMSO control 0%; read-out: FoxO AC50. The format is cell-based. The procedure:
(§1) Phosphorylation of AKT on S473 and FoxO3a nuclear to cytoplasmic translocation were used as readouts of PI3K/Akt/mTOR pathway activation downstream of growth factor signaling.
(§2) Reporter cell line. U2OS GFP-FoxO3a H212R reporter cell line was established by transducing U2OS cells with the retroviral plasmid pLEGFP-C1 containing FoxO3a H212R transgene and selecting for G418 resistant clones.
(§3) Reporter assay. U2OS GFP-FoxO3a H212R cells were plated in 384-well plates at 4000 cells per well in 30 microliters of McCoy's 5 A medium containing 10% FBS. On day 1 the cells were washed with serum free medium and serum starved overnight. On day 2 the cells were treated with different doses of the compounds for 30 minutes, fixed with 4% Paraformaldehyde for 1 hour and stained with Phospho-AKT (Ser473) antibody (Cell Signaling Technology, catalog #4060) overnight at 4 degrees Celsius. After nuclei staining with Hoechst 33342 (Life Technologies, catalog # H3570) the plates were imaged with InCell 2000 (GE Healthcare Bio-Sciences). FoxO3a inhibition activity is calculated as the ratio of nuclear to cytosolic GFP intensity in percent. AKT activation is measured as the total cellular intensity of Phospho-AKT antibody staining in percent. DMSO control is set as 0% activity.

The subject of assay [2] is AKT. Briefly: AKT activation: Phospho-AKT (Ser473) antibody staining in reporter cells. The format is cell-based. Particulars: Homo sapiens, U2OS, 0.5 h, U2OS GFP-FoxO3a H212R cells, serum starved overnight, compound 30 minutes; total cellular intensity of Phospho-AKT (Ser473) staining; DMSO control 0%. The procedure: as §1, §2, §3

For the molecule `Cc1cc(C(N)=O)nn1-c1ccc2c(ccn2Cc2ccc(-c3cnc4c(c3)OCCN4C)cc2)c1` [Example 1-9, 5-methyl-1-(1-(4-(4-methyl-3,4-dihydro-2H-pyrido[3,2-b][1,4]oxazin-7-yl)benzyl)-1H-indol-5-yl)-1H-pyrazole-3-carboxamide], the AC50 (in general, the midpoint of the concentration-response curve, whichever way the signal moves) was 0.109 µM in assay [1] and 0.318 µM in assay [2].
Take `Cc1cc(C(N)=O)nn1-c1ccc2c(ccn2Cc2ccc(-c3ccc4cn(C)nc4c3)cc2)c1` [Example 1-10, 5-methyl-1-(1-(4-(2-methyl-2H-indazol-6-yl)benzyl)-1H-indol-5-yl)-1H-pyrazole-3-carboxamide]: the results for the AC50 in assay [1] and in assay [2] were 0.072 µM and 0.234 µM, respectively.
With `Cc1cc(C(N)=O)nn1-c1ccc2c(ccn2Cc2ccc(-c3ccc(S(=O)(=O)N4CCN(C)CC4)cc3)cc2)c1` [Example 1-11, 5-methyl-1-(1-((4′-((4-methylpiperazin-1-yl)sulfonyl)-[1,1′-biphenyl]-4-yl)methyl)-1H-indol-5-yl)-1H-pyrazole-3-carboxamide], the AC50 in assay [1] amounted to 0.069 µM; in assay [2], 0.388 µM.
As to `Cc1cc(C(N)=O)nn1-c1ccc2c(ccn2Cc2ccc(-c3cccc(C(=O)N4CCN(C)CC4)c3)cc2)c1` [Example 1-12, 5-methyl-1-(1-((3′-(4-methylpiperazine-1-carbonyl)-[1,1′-biphenyl]-4-yl)methyl)-1H-indol-5-yl)-1H-pyrazole-3-carboxamide], the AC50 in assay [1] was determined as 0.124 µM; in assay [2], 0.346 µM.
The corresponding values for `Cc1cc(C(N)=O)nn1-c1ccc2c(ccn2Cc2ccc(-c3ccc(S(=O)(=O)N(C)C)cc3)cc2)c1` [Example 1-13, 1-(1-((4′-(N,N-dimethylsulfamoyl)-[1,1′-biphenyl]-4-yl)methyl)-1H-indol-5-yl)-5-methyl-1H-pyrazole-3-carboxamide] are 0.084 µM and 0.23 µM.
For `Cc1cc(C(N)=O)nn1-c1ccc2c(ccn2Cc2ccc(-c3ccc4cn[nH]c4c3)cc2)c1` [Example 1-14, 1-(1-(4-(1H-indazol-6-yl)benzyl)-1H-indol-5-yl)-5-methyl-1H-pyrazole-3-carboxamide], in that order: 0.284 µM and 1.05 µM.
The corresponding values for `Cc1cc(C(N)=O)nn1-c1ccc2c(ccn2Cc2ccc(-c3ccc(O)c(F)c3)cc2)c1` [Example 1-15, 1-(1-((3′-fluoro-4′-hydroxy-[1,1′-biphenyl]-4-yl)methyl)-1H-indol-5-yl)-5-methyl-1H-pyrazole-3-carboxamide] are 0.056 µM and 0.172 µM.
As for `Cc1cc(C(N)=O)nn1-c1ccc2c(ccn2Cc2ccc(-c3cnc4[nH]ccc4c3)cc2)c1` [Example 1-16, 1-(1-(4-(1H-pyrrolo[2,3-b]pyridin-5-yl)benzyl)-1H-indol-5-yl)-5-methyl-1H-pyrazole-3-carboxamide], the AC50 came to 0.147 µM in assay [1] and 0.451 µM in assay [2].
With `Cc1cc(C(N)=O)nn1-c1ccc2c(ccn2Cc2ccc(-c3ccc4[nH]ncc4c3)cc2)c1` [Example 1-17, 1-(1-(4-(1H-indazol-5-yl)benzyl)-1H-indol-5-yl)-5-methyl-1H-pyrazole-3-carboxamide], the AC50 in assay [1] worked out at 0.088 µM; in assay [2] it was 0.199 µM.
For `Cc1cc(C(N)=O)nn1-c1ccc2c(ccn2Cc2ccc(-c3ccc4cnccc4c3)cc2)c1` [Example 1-18, 1-(1-(4-(isoquinolin-6-yl)benzyl)-1H-indol-5-yl)-5-methyl-1H-pyrazole-3-carboxamide], in that order: 0.095 µM and 0.352 µM.
The corresponding values for `Cc1cc(C(N)=O)nn1-c1ccc2c(ccn2Cc2ccc(-c3cnn(C)c3)cc2)c1` [Example 1-19, 5-methyl-1-(1-(4-(1-methyl-1H-pyrazol-4-yl)benzyl)-1H-indol-5-yl)-1H-pyrazole-3-carboxamide] are 0.14 µM and 0.5 µM.
